In one data set the test system is Salmonella strain TA2637. As to conditions: cited from earlier work.
Data set [1] deals with atherosclerotic lesions in the aorta. Description: Atherosclerotic lesion area in oil red O-stained aortas of ApoE-/- mice. As to conditions: 9-month-old ApoE-/- mice, 10 mg/kg/d in drinking water for 8 months. The class given is in vivo. Here is the method:
ApoE−/− mice (Taconic Biosciences, Rensselaer, N.Y., USA) with deficiency of apolipoprotein E (ApoE−/−) due to disruption of the endogenous ApoE gene were used as a genetic model of atherosclerosis (Piedrahita et al., Proc. Natl. Acad. Sci. U.S.A., 89, 4471-4475, 1992). Atherosclerotic lesion area was determined by quantitative image analysis with oil red O-stained aortas. Total plasma cholesterol was determined by a commercial kit (Sigma). Mice were kept on a 12 h dark and 12 h light cycle, had free access to food and water, and were fed a standard rodent chow (AIN-95-based diet without vitamin E supplementation and with 7% fat and 0.15% cholesterol). For the study, we used ApoE−/− mice on a B6 (C57BL/6J) background and non-transgenic B6 control mice. Alizarin treatment (10 mg/kg/day in drinking water) was initiated at an age of 4 weeks and continued for eight months until the end of the observation period. […]
Alzheimer's Disease (AD) is the most frequent form of dementia in the elderly. […] Atherosclerotic lesion area was assessed with oil red O-stained aortas isolated from 9-month-old ApoE−/− mice (FIG. 17A). […] The aortic expression levels of neuronal marker genes of alizarin-treated ApoE−/− mice were determined compared to untreated ApoE−/− mice and untreated B6 mice without atherosclerosis (FIG. 17D,E).

Data set [2] in a line: Sub-chronic oral toxicity in rats. Type of data set: in vivo, Sprague Dawley rats. Here is the method: Sub-chronic toxicity studies in dogs (German Shepherd dogs) and rats (Sprague Dawley rats) were performed by the Center of Applied Analytical and Veterinary Studies, Cairo, Egypt.
The oral toxicity of alizarin (Compound-1) in rats was determined in a sub-chronic toxicity study. Rats were treated for 3 months with a once daily oral dose of alizarin of 25 mg/kg/day, 50 mg/kg/day and 100 mg/kg/day. […] The good tolerability of alizarin in rats and dogs is supported by previous observations in humans, which document that long-term treatment for several years with alizarin and alizarin-containing plant extracts is not toxic and was previously used to prevent recurrence of calcium-containing urinary stones (Lorenz et al., Methods Find. Exp. Clin. Pharmacol. 7, 637-643, 1985). Taken together, alizarin has good oral bioavailability and a wide therapeutic window.
Pharmacokinetic data of Compound-7 were determined as another representative TOMM6/Tomm6 inducer with a different chemical structure than alizarin (Compound-1). […] The oral bioavailability of Compound-7 in dogs was much higher than in rats because oral doses of Compound-7 required to achieve equivalent peak serum concentrations were approximately 10-fold higher in rats compared to dogs (FIG. 20B). Again, this observation is in agreement with the equivalent surface area dosage rule, according to which rats and mice usually require a 10-12-fold higher dose than dogs and humans. […] This second peak could reflect enterohepatic recirculation of Compound-7.

A short description of data set [3]: Measurement of serum level in dogs by HPLC. The class given is in vivo, German shepherd dogs. As to conditions: for peak serum concentration: t=1 h. Here is the method:
Serum concentrations of alizarin were determined with serum isolated from the blood of male and female German shepherd dogs (age: 8-9 months) taken at different time points (0.5 h, 1 h, 2 h, 4 h, 6 h, 8 h, 24 h) after oral intake of the indicated doses for 4 weeks. In addition, serum concentrations of alizarin (Compound-1) were determined in male and female Sprague Dawley rats (body weight: 200-250 g) treated for 1 month and/or three months by oral gavage of alizarin at a once daily dose of 100 mg/kg, 50 mg/kg, 25 mg/kg and 12.5 mg/kg. Serum proteins were removed by acetonitrile precipitation, and alizarin was extracted by chloroform before separation on an HPLC-C18 column (Poroshell 120 EC-C18, 3.0×50 mm, Agilent) with an HPLC system (Agilent 1100 Series) and detection at OD245 nm. For quantitative determination of Compound-7 and Compound-10F in rat and dog serum, serum proteins were also removed by acetonitrile precipitation before HPLC analysis as detailed above and detection at OD254 nm.

For `O=C1c2ccccc2C(=O)c2c1ccc(O)c2O` [Compound-1, 1,2-dihydroxyanthraquinone], the “mutagenicity in the Ames test” value in the data set on Salmonella strain TA2637 was “could be mutagenic”. Besides, the “atherosclerotic lesion area, lower compared to untreated ApoE-/- mice” value in data set [1] came to 3.6 fold. In data set [2] (rats, 3 months, once daily oral 100 mg/kg), the “histopathology of heart, liver, kidney” value is “did not show any detectable alterations”. In addition, the “adverse effects on body, liver, heart and kidney weight, serum calcium, creatinine, BUN, ALT, AST” value in data set [2] (rats, 3 months, once daily oral 25, 50 and 100 mg/kg/day) is given as “did not find any significant adverse effects”. Besides, in data set [2] (therapeutic dose 10 mg/kg once daily in rodent models), the “difference between therapeutic and toxic doses (therapeutic index)” value is reported as “more than 10 fold”. The “oral bioavailability / serum concentrations after oral intake” value in data set [3] is recorded as “achieves therapeutic serum concentrations”. In addition, the “time of second serum peak” value in data set [3] (after oral intake) is reported as 4 h. The results for the peak serum concentration in data set [3] (repeated once daily oral dose of 2 mg/kg) and in data set [3] (repeated once daily oral dose of 6 mg/kg) were 0.146 ± 0.017 µg/mL and 0.467 ± 0.022 µg/mL, respectively. The “time of peak serum concentration” value in data set [3] (repeated once daily oral intake of 2 mg/kg/day and 6 mg/kg/day) was found to be 1 h.

Source of the values: patent US20210186947A1, “TOMM6-INTERACTING EXTRACTS AND COMPOUNDS FOR USE IN THE TREATMENT AND PROPHYLAXIS OF NERVOUS SYSTEM DISEASES, ATHEROSCLEROSIS, HEPATITIS B INFECTION AND HUMAN PAPILLOMA VIRUS (HPV) INFECTION” (ETH ZURICH, priority 2018, published 2021).
